# In patent publication US10711036B2, “MALT1 inhibitors and uses thereof” (Cornell University, priority 2015, dated 2020):
# Where a SMILES comes first, the peptide text is derived from it. [ ]: non-standard residue; d: D form. The star is where a group is joined. ξ: configuration not given here. Ile(3ξ) = CCC(C)[C@H](N)C(=O)O; Chg = N[C@H](C(=O)O)C1CCCCC1; Ac5c = NC1(C(=O)O)CCCC1; Cbz = O=C(OCc1ccccc1)*; CH2F = FC*
# How the values were obtained:
# [1] = target: MALT1 (Homo sapiens (Human), UniProt Q9UDY8); assay: Inhibition constants (Ki) for inhibition of MALT1; format: biochemical; settings: 100 nM MALT1 used for the assay
# Protocol: For exemplary compounds of the disclosure, Ki for inhibition of MALT1 was measured (Table E11). A concentration of 100 nM MALT1 was used for the assay.
# [2] = test system: OCI-LY3; assay: Cell growth inhibition assay (CellTiter-Glo, 96 hours), OCI-LY3; format: cell-based, human; settings: Homo sapiens, OCI-LY3 cells, treated at t=0 and t=48 hours, ATP luminescence
# Protocol: DLBCL cell lines were grown in exponential growth conditions during the 96 hours of treatment. Cells were treated twice: at t=0 and t=48 hours, and cell viability was determined by ATP quantification using a luminescent method ([…]-GLO, Promega, Madison, Wis.). Cell viability in drug-treated cells was normalized to vehicle controls (fractional viability) and results are given as 1-fractional viability.
# Experiments were Performed in Triplicate.
# [3] = test system: OCI-LY3; assay: Maximum killing effect on OCI-LY3; format: cell-based, human
# Protocol: (§1) The maximum killing effects on cell-lines OCI-LY3, TMD8, and OCI-LY1 were also measured for select compounds at inhibitor concentration of 20 μM and 5 μM. TMD8 is another line of ABC type diffuse large-B cell lymphoma, while OCI-LY1 is a DLBCL line of the germinal center B-cell subtype.
# [4] = test system: TMD8; assay: Maximum killing effect on TMD8; format: cell-based
# Protocol: as §1
# [5] = test system: OCI-LY1; assay: Maximum killing effect on OCI-LY1; format: cell-based
# Protocol: as §1
# Chain of MALT1 (Q9UDY8 whole entry): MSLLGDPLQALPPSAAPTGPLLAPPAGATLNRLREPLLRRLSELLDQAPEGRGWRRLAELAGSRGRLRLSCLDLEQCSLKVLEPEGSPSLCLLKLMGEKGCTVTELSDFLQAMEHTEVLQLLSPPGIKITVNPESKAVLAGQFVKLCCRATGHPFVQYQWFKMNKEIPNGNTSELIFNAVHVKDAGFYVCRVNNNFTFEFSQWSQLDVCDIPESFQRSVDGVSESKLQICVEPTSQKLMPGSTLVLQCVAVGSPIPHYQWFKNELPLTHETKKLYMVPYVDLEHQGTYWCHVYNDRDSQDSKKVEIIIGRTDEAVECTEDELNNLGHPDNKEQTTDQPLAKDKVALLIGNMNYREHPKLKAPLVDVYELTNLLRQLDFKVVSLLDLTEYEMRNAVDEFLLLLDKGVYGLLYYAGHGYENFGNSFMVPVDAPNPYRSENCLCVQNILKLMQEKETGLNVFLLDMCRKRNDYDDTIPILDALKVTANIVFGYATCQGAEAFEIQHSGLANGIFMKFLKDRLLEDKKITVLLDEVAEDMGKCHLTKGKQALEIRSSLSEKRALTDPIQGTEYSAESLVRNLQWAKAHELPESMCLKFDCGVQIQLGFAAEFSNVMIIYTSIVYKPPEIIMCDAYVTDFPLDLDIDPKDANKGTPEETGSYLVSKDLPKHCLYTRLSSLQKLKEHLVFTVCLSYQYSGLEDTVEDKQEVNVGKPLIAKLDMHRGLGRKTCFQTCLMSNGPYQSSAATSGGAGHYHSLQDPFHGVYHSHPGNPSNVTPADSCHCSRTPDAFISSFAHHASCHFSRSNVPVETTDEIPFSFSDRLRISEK
SMILES,Ki [1],GI50 [2],further results
N=C(N)NCCC[C@H](NC(=O)[C@@H]1CCCN1C(=O)[C@@H](NC(=O)OCc1ccccc1)C1CCCCC1)C(=O)CF [Compound 102] (Cbz-[Chg]-Pro-Arg-CH2F),44 nM,1450 nM,"Maximum killing effect ([3]; OCI-LY3, 20 μM): 85%; Maximum killing effect ([4]; TMD8, 20 μM): 54%; Maximum killing effect ([5]; OCI-LY1, 20 μM): 19%"
CC(C)[C@H](NC(=O)c1ccccc1Br)C(=O)N1CCC[C@H]1C(=O)N[C@@H](CCCNC(=N)N)C(=O)CF [Compound 114],105 nM,4240 nM,"Maximum killing effect ([3]; OCI-LY3, 20 μM): 80%; Maximum killing effect ([4]; TMD8, 20 μM): 40%; Maximum killing effect ([5]; OCI-LY1, 20 μM): 9%"
CC(C)[C@H](NC(=O)c1cccc(Br)c1)C(=O)N1CCC[C@H]1C(=O)N[C@@H](CCCNC(=N)N)C(=O)CF [Compound 115],41 nM,530 nM,"Maximum killing effect ([3]; OCI-LY3, 20 μM): 84%; Maximum killing effect ([4]; TMD8, 20 μM): 64%; Maximum killing effect ([5]; OCI-LY1, 20 μM): 15%"
CC(C)[C@H](NC(=O)C1CCCCC1)C(=O)N1CCC[C@H]1C(=O)N[C@@H](CCCNC(=N)N)C(=O)CF [Compound 120],56 nM,940 nM,"Maximum killing effect ([3]; OCI-LY3, 20 μM): 81%; Maximum killing effect ([4]; TMD8, 20 μM): 52%; Maximum killing effect ([5]; OCI-LY1, 20 μM): <0%"
N=C(N)NCCC[C@H](NC(=O)[C@@H]1CCCN1C(=O)[C@@H](NC(=O)c1ccc(Br)cc1)C1CCCCC1)C(=O)CF [Compound 143],45 nM,130 nM,
CC(C)[C@H](NC(=O)c1ccc(Br)cc1)C(=O)N1CCCC[C@H]1C(=O)N[C@@H](CCCNC(=N)N)C(=O)CF [Compound 144],79 nM,460 nM,
CC(C)[C@H](NC(=O)c1ccc(OC(F)(F)F)cc1)C(=O)N1CCC[C@H]1C(=O)N[C@@H](CCCNC(=N)N)C(=O)CF [Compound 145],27 nM,700 nM,
CC(C)[C@H](NC(=O)c1ccc(Cl)c(C#N)c1)C(=O)N1CCC[C@H]1C(=O)N[C@@H](CCCNC(=N)N)C(=O)CF [Compound 147],24 nM,550 nM,
CC(C)[C@H](NC(=O)c1cccc(OC(F)(F)F)c1)C(=O)N1CCC[C@H]1C(=O)N[C@@H](CCCNC(=N)N)C(=O)CF [Compound 148],15 nM,530 nM,
CC(C)[C@H](NC(=O)c1cccc2ccccc12)C(=O)N1CCC[C@H]1C(=O)N[C@@H](CCCNC(=N)N)C(=O)CF [Compound 153],102 nM,160 nM,
CC(C)[C@H](NC(=O)/C=C/c1ccccc1)C(=O)N1CCC[C@H]1C(=O)N[C@@H](CCCNC(=N)N)C(=O)CF [Compound 154],36 nM,110 nM,
CC(C)[C@H](NC(=O)c1ccc2ccccc2n1)C(=O)N1CCC[C@H]1C(=O)N[C@@H](CCCNC(=N)N)C(=O)CF [Compound 155],55 nM,570 nM,
CC(C)[C@H](NC(=O)c1cnc2ccccc2c1)C(=O)N1CCC[C@H]1C(=O)N[C@@H](CCCNC(=N)N)C(=O)CF [Compound 156],40 nM,3880 nM,
CC(C)[C@H](NC(=O)c1ccc2cnccc2c1)C(=O)N1CCC[C@H]1C(=O)N[C@@H](CCCNC(=N)N)C(=O)CF [Compound 157],59 nM,630 nM,
CC(C)[C@H](NC(=O)c1ccc2ccncc2c1)C(=O)N1CCC[C@H]1C(=O)N[C@@H](CCCNC(=N)N)C(=O)CF [Compound 158],110 nM,1700 nM,
CC(C)[C@H](NC(=O)c1ccnc2ccccc12)C(=O)N1CCC[C@H]1C(=O)N[C@@H](CCCNC(=N)N)C(=O)CF [Compound 159],139 nM,4220 nM,
CC(C)[C@H](NC(=O)c1ccc(F)cc1)C(=O)N1CCC[C@H]1C(=O)N[C@@H](CCCNC(=N)N)C(=O)CF [Compound 160],13 nM,2340 nM,
CC(C)[C@H](NC(=O)c1ccc(F)cc1)C(=O)N1CCC[C@H]1C(=O)N[C@H](CCCNC(=N)N)C(=O)CF [Compound 161],346 nM,910 nM,

SMILES,Ki [1],GI50 [2],further results
CC(C)[C@H](NC(=O)c1ccc(C(C)(C)C)cc1)C(=O)N1CCC[C@H]1C(=O)N[C@@H](CCCNC(=N)N)C(=O)CF [Compound 162],45 nM,980 nM,
CC(C)[C@H](NC(=O)Nc1ccc(Cl)cc1)C(=O)N1CCC[C@H]1C(=O)N[C@@H](CCCNC(=N)N)C(=O)CF [Compound 164],62 nM,780 nM,
CC(C)[C@H](NC(=O)Nc1cccc(Cl)c1)C(=O)N1CCC[C@H]1C(=O)N[C@@H](CCCNC(=N)N)C(=O)CF [Compound 165],27 nM,520 nM,
CC(C)[C@H](NC(=O)c1ccc(Br)cc1)C(=O)N1C[C@H](O)C[C@H]1C(=O)N[C@@H](CCCNC(=N)N)C(=O)CF [Compound 171],50 nM,70 nM,
N=C(N)NCCC[C@H](NC(=O)[C@H](CO)NC(=O)[C@@H](NC(=O)c1ccc(Br)cc1)C1CCCCC1)C(=O)CF [Compound 173],46 nM,240 nM,
CC(C)[C@H](NC(=O)c1ccc(Br)cc1)C(=O)N1COC[C@H]1C(=O)N[C@@H](CCCNC(=N)N)C(=O)CF [Compound 174],20 nM,120 nM,
CC(C)[C@H](NC(=O)c1ccc(Br)cc1)C(=O)N1CCOC[C@H]1C(=O)N[C@@H](CCCNC(=N)N)C(=O)CF [Compound 175],70 nM,460 nM,
CC(C)[C@H](NC(=O)c1ccc(Br)cc1)C(=O)N1CC[C@H]1C(=O)N[C@@H](CCCNC(=N)N)C(=O)CF [Compound 176],118 nM,770 nM,
CC(C)[C@H](NC(=O)c1ccc(Br)cc1F)C(=O)N1CCC[C@H]1C(=O)N[C@@H](CCCNC(=N)N)C(=O)CF [Compound 179],71 nM,810 nM,
CCC(C)[C@H](NC(=O)OCc1ccccc1)C(=O)N1CCC[C@H]1C(=O)N[C@@H](CCCNC(=N)N)C(=O)CF (stereo partly drawn) [Compound 180] (Cbz-[Ile(3ξ)]-Pro-Arg-CH2F),30 nM,2440 nM,
N=C(N)NCCC[C@H](NC(=O)[C@@H]1CCCN1C(=O)C1(NC(=O)OCc2ccccc2)CCCC1)C(=O)CF [Compound 181] (Cbz-[Ac5c]-Pro-Arg-CH2F),1180 nM,4310 nM,
N=C(N)NCCC[C@H](NC(=O)[C@@H]1CCCN1C(=O)[C@H](Cc1ccccc1)NC(=O)OCc1ccccc1)C(=O)CF [Compound 182],76 nM,2300 nM,
Cc1cc(Br)ccc1C(=O)N[C@H](C(=O)N1CCC[C@H]1C(=O)N[C@@H](CCCNC(=N)N)C(=O)CF)C(C)C [Compound 183],40 nM,850 nM,
CC(C)C[C@H](NC(=O)OCc1ccccc1)C(=O)N1CCC[C@H]1C(=O)N[C@@H](CCCNC(=N)N)C(=O)CF [Compound 184] (Cbz-Leu-Pro-Arg-CH2F),93 nM,5490 nM,
CC(C)C[C@H](NC(=O)c1ccc(Br)cc1)C(=O)N1CCC[C@H]1C(=O)N[C@@H](CCCNC(=N)N)C(=O)CF [Compound 185],182 nM,1100 nM,
N=C(N)NCCC[C@H](NC(=O)[C@@H]1CCCN1C(=O)[C@H](Cc1ccc(C(F)(F)F)cc1)NC(=O)c1ccc(Br)cc1)C(=O)CF [Compound 186],448 nM,1370 nM,
"CC(C)[C@H](NC(=O)OCc1ccccc1)C(=O)N[C@@H](CCCNC(=N)N)C(=O)N1CCC[C@H]1C(=O)N[C@@H](CCCNC(=N)N)C(=O)CF [Z-VRPR-fmk, reference compound]",,,"Maximum killing effect ([3]; OCI-LY3, 5 μM): 42%; Maximum killing effect ([3]; OCI-LY3, 20 μM): 62%; Maximum killing effect ([4]; TMD8, 5 μM): 27%; Maximum killing effect ([4]; TMD8, 20 μM): 67%; Maximum killing effect ([5]; OCI-LY1, 5 μM): <0%; Maximum killing effect ([5]; OCI-LY1, 20 μM): <0%"
"CN1CCCC(CN2c3ccccc3Sc3ccccc32)C1 (centres unmarked) [mepazine, reference compound]",,,"Maximum killing effect ([3]; OCI-LY3, 5 μM): 35%; Maximum killing effect ([3]; OCI-LY3, 20 μM): 97%; Maximum killing effect ([4]; TMD8, 5 μM): 32%; Maximum killing effect ([4]; TMD8, 20 μM): 99%; Maximum killing effect ([5]; OCI-LY1, 5 μM): 6%; Maximum killing effect ([5]; OCI-LY1, 20 μM): 82%"
